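Where inhibition never reached the appropriate level, the endpoint shown equals the highest concentration tested. Otherwise, values were interpolated linearly from a five-concentration, 48-hour dose response in 96-well plates. At the GI50, growth is halved.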 Active and inactive are the calls of the source. Rule as the data show it: active = GI50 up to about 1.1 µM and inactive = higher.
What was measured:
Experiment in all cases: NCI-60 cell line screen, 48 h
HCT-116 = tested on: HCT-116
DMS-114 = tested on: DMS-114
KM12 = tested on: KM12
OVCAR-3 = tested on: OVCAR-3
LOX IMVI = tested on: LOX IMVI
SF-268 = tested on: SF-268
LXFL 529 = tested on: LXFL 529
HCT-15 = tested on: HCT-15
COLO 205 = tested on: COLO 205
OVCAR-8 = tested on: OVCAR-8
NCI-H23 = tested on: NCI-H23
UACC-62 = tested on: UACC-62
SK-MEL-5 = tested on: SK-MEL-5
NCI-H226 = tested on: NCI-H226
Malme-3M = tested on: Malme-3M
SW-620 = tested on: SW-620
MCF7 = tested on: MCF7
NCI/ADR-RES = tested on: NCI/ADR-RES
MDA-MB-231 = tested on: MDA-MB-231
Hs-578T = tested on: Hs-578T

SMILES | GI50 (HCT-116) | GI50 (DMS-114) | GI50 (KM12) | GI50 (OVCAR-3) | GI50 (LOX IMVI) | GI50 (SF-268) | GI50 (LXFL 529) | GI50 (HCT-15) [µM] | GI50 (COLO 205) | GI50 (OVCAR-8) | GI50 (NCI-H23) | GI50 (UACC-62) | GI50 (SK-MEL-5) | GI50 (NCI-H226) | GI50 (Malme-3M) | GI50 (SW-620) | GI50 (MCF7) | GI50 (NCI/ADR-RES) | GI50 (MDA-MB-231) | GI50 (Hs-578T)
O=C1C=CC(=O)C2C1Cc1ccccc1C2c1ccccc1 (stereo not given) | 37.6 µM (inactive) | 22.2 µM (inactive) | 51.9 µM (inactive) | 29.6 µM (inactive) | 41.6 µM (inactive) | 53.1 µM (inactive) | 17.3 µM (inactive) | 36.6 | 19.5 µM (inactive) | 25.9 µM (inactive) | 62.1 µM (inactive) | > 100 µM (inactive) | 64 µM (inactive) | 65.5 µM (inactive) | 59.4 µM (inactive) | 27.7 µM (inactive) |  |  |  | 
COC1CC(C)C(OC)C2=CC(=O)C=C(NC(=O)/C(C)=C/C=C\C(C)C(OC(N)=O)/C(C)=C\C(C)C1OC)C2=O (stereo not given) | 0.313 µM (active) | 0.403 µM (active) | 0.521 µM (active) | 0.313 µM (active) | 0.379 µM (active) | 1.31 µM (inactive) | 0.191 µM (active) | 1.33 | 0.0414 µM (active) | 1.67 µM (inactive) | 0.447 µM (active) | 0.492 µM (active) | 0.804 µM (active) | 6.15 µM (inactive) | 0.334 µM (active) | 0.0485 µM (active) | 0.0621 µM (active) |  |  | 
CC(C)NC(=O)OCc1c(COC(=O)NC(C)C)c(-c2ccc(Cl)c(Cl)c2)n2c1CCC2 | 51.8 µM (inactive) | 33.7 µM (inactive) | 62.5 µM (inactive) | 54 µM (inactive) | 46.8 µM (inactive) | 43.5 µM (inactive) | 3.6 µM (inactive) | 52.7 | 52.8 µM (inactive) | 46.6 µM (inactive) | 46.9 µM (inactive) | 39.8 µM (inactive) | 24.9 µM (inactive) | 28.1 µM (inactive) | 47.1 µM (inactive) | 21 µM (inactive) | > 100 µM (inactive) | > 89.7 µM (inactive) | 84.7 µM (inactive) | > 97.5 µM (inactive)
COC(=O)C1=C(c2ccc3c(c2)OCO3)O[C@H](c2cc(OC)c(OC)c(OC)c2)[C@H]1COC(C)=O | 4.55 µM (inactive) | 1.15 µM (inactive) | 4.31 µM (inactive) | 1.19 µM (inactive) | 8.91 µM (inactive) | 7.5 µM (inactive) | 2.94 µM (inactive) | 5.68 | 0.984 µM (active) | 5.04 µM (inactive) | 2.25 µM (inactive) | 3.32 µM (inactive) | 0.973 µM (active) | 10.4 µM (inactive) | 1.99 µM (inactive) | 3.87 µM (inactive) |  |  |  | 
Cc1cnoc1/N=C1\C=C(Nc2oncc2C)C(=O)c2ccccc21 | > 100 µM (inactive) | 46.8 µM (inactive) | > 100 µM (inactive) | 9.86 µM (inactive) | 23.3 µM (inactive) | > 100 µM (inactive) | 79.1 µM (inactive) | 73.1 | > 100 µM (inactive) | 30.8 µM (inactive) | 60.5 µM (inactive) | 48.3 µM (inactive) | 33.3 µM (inactive) | > 100 µM (inactive) | > 100 µM (inactive) | > 100 µM (inactive) |  |  |  | 

Source: ChEMBL document CHEMBL1201862, “PubChem BioAssay data set” (2004)
